Assay results published in patent US20220348558A1, “INHIBITORS OF ENCEPHALITIC ALPHAVIRUSES” (priority 2019, published 2022).

Columns and labels:
VEEV TC83 = assay: microbe, parasite or virus in culture; format: cell-based; conditions: Venezuelan equine encephalitis virus, Vero 76, 48 h, read-out: VEEV TC83 EC50 nM
WEEV California = assay: microbe, parasite or virus in culture; format: cell-based; conditions: Western equine encephalitis virus, Vero 76, 48 h, read-out: WEEV California EC50 nM

Row | Structure (SMILES) | EC50 (VEEV TC83) | EC50 (WEEV California)
1 | COc1ccc(-n2c([C@H]3CCCN3C3COC3)nc3ccc([N+](=O)[O-])cc3c2=O)cc1 [Example 11, (R)-3-(4-methoxyphenyl)-6-nitro-2-(1-(oxetan-3-yl)pyrrolidin-2-yl) quinazolin-4 (3H)-one] | 51 to 150 nM | 501 to 1000 nM
2 | COc1ccc(-n2c([C@@H]3CCCN3)nc3ccc(C#N)cc3c2=O)cc1 [Example 15, (S)-3-(4-methoxyphenyl)-4-oxo-2-(pyrrolidin-2-yl)-3,4-dihydroquinazoline-6-carbonitrile] | 51 to 150 nM | 501 to 1000 nM
3 | COc1ccc(-n2c([C@H]3CCCN3)nc3ccc([N+](=O)[O-])cc3c2=O)c(F)c1 [Example 25, (R)-3-(2-fluoro-4-methoxyphenyl)-6-nitro-2-(pyrrolidin-2-yl) quinazolin-4 (3H)-one] | 51 to 150 nM | 151 to 500 nM
4 | COc1ccc(-n2c([C@@H]3C[C@@H]4CCCC[C@@H]4N3)nc3c(-c4ccc(C)nc4)cc(C#N)cc3c2=O)cc1F [Example 139, 3-(3-fluoro-4-methoxyphenyl)-8-(6-methylpyridin-3-yl)-2-((2S,3aS,7aS)-octahydro-1H-indol-2-yl)-4-oxo-3,4-dihydroquinazoline-6-carbonitrile] | 1 to 50 nM | 51 to 150 nM
5 | O=c1c2cc([N+](=O)[O-])ccc2nc(C2CCN2)n1-c1ccccc1 (stereo not drawn) [Example 27, 2-(azetidin-2-yl)-6-nitro-3-phenylquinazolin-4 (3H)-one] | 501 to 1000 nM | > 1000 nM
6 | COc1ncc(-n2c(C34CC(CN3)C4)nc3c(-c4ccc(C)nc4)cc(C#N)cc3c2=O)cn1 [Example 165, 2-(2-azabicyclo[2.1.1]hexan-1-yl)-3-(2-methoxypyrimidin-5-yl)-8-(6-methylpyridin-3-yl)-4-oxo-3,4-dihydroquinazoline-6-carbonitrile] | > 1000 nM | –
7 | N#Cc1cccc(-n2c([C@H]3CCCN3)nc3ccc([N+](=O)[O-])cc3c2=O)c1 [Example 21, (R)-3-(6-nitro-4-oxo-2-(pyrrolidin-2-yl)quinazolin-3 (4H)-yl)benzonitrile] | > 1000 nM | > 1000 nM
8 | COc1ccc(-n2c([C@H]3CCCN3)nc3c(C(F)(F)F)cc(C#N)cc3c2=O)cc1 [Example 74, (R)-3-(4-methoxyphenyl)-4-oxo-2-(pyrrolidin-2-yl)-8-(trifluoromethyl)-3,4-dihydroquinazoline-6-carbonitrile] | 1 to 50 nM | 1 to 50 nM
9 | COc1ccc(-n2c([C@H]3CCCN3)nc3c(-c4cccnc4)cc([N+](=O)[O-])cc3c2=O)cc1F [Example 81, (R)-3-(3-fluoro-4-methoxyphenyl)-6-nitro-8-(pyridin-3-yl)-2-(pyrrolidin-2-yl) quinazolin-4 (3H)-one] | 1 to 50 nM | 1 to 50 nM
10 | COc1c(F)cc(-n2c(C3C[C@H](F)CN3)nc3c(-c4cc(C)nc(C)c4)cc(C#N)cc3c2=O)cc1F (stereo partly drawn) [Example 160, 3-(3,5-Difluoro-4-methoxyphenyl)-8-(2,6-dimethylpyridin-4-yl)-2-((4S)-4-fluoropyrrolidin-2-yl)-4-oxo-3,4-dihydroquinazoline-6-carbonitrile] | 51 to 150 nM | 51 to 150 nM
11 | COc1ccc(-n2c([C@H]3CCCN3)nc3c(-c4ccc(C)nc4)cc(C#N)cc3c2=O)cc1F [Example 102, (R)-3-(3-fluoro-4-methoxyphenyl)-8-(6-methylpyridin-3-yl)-4-oxo-2-(pyrrolidin-2-yl)-3,4-dihydroquinazoline-6-carbonitrile] | 1 to 50 nM | 1 to 50 nM
12 | COc1ccc(-n2c(C3CCCN3)nc3c(-c4ccnc(C)c4)cc(C#N)cc3c2=O)cc1F (stereo not drawn) [Example 138, 3-(3-fluoro-4-methoxyphenyl)-8-(2-methylpyridin-4-yl)-4-oxo-2-(pyrrolidin-2-yl)-3,4-dihydroquinazoline-6-carbonitrile] | 1 to 50 nM | 1 to 50 nM
13 | O=c1c2cc([N+](=O)[O-])ccc2nc(C2CCCN2)n1-c1ccccc1Cl (stereo not drawn) [Example 38, 3-(2-chlorophenyl)-6-nitro-2-(pyrrolidin-2-yl) quinazolin-4 (3H)-one] | > 1000 nM | > 1000 nM
14 | COc1ccc(-n2c([C@H]3CCCN3)nc3c(N4CCOCC4)cc(C#N)cc3c2=O)cc1F [Example 113, (R)-3-(3-fluoro-4-methoxyphenyl)-8-morpholino-4-oxo-2-(pyrrolidin-2-yl)-3,4-dihydroquinazoline-6-carbonitrile] | 1 to 50 nM | 51 to 150 nM
15 | O=c1c2cc([N+](=O)[O-])ccc2nc(C2CCCN2)n1-c1ccccc1F (stereo not drawn) [Example 41, 3-(2-fluorophenyl)-6-nitro-2-(pyrrolidin-2-yl)quinazolin-4 (3H)-one] | 501 to 1000 nM | > 1000 nM
16 | COc1ccc(-n2c([C@@H]3CCNC3)nc3ccc([N+](=O)[O-])cc3c2=O)cc1 [Example 19, (R)-3-(4-methoxyphenyl)-6-nitro-2-(pyrrolidin-3-yl)quinazolin-4 (3H)-one] | 1 to 50 nM | 151 to 500 nM

Row | Structure (SMILES) | EC50 (VEEV TC83) | EC50 (WEEV California)
17 | Cc1ccc(-n2c([C@H]3CCCN3)nc3ccc([N+](=O)[O-])cc3c2=O)cc1 [Example 37, (R)-6-nitro-2-(pyrrolidin-2-yl)-3-(p-tolyl)quinazolin-4 (3H)-one] | 1 to 50 nM | 501 to 1000 nM
18 | COc1ccc(-n2c([C@H]3CCCN3)nc3c(-c4cncc(F)c4)cc(C#N)cc3c2=O)cc1F [Example 106, (R)-3-(3-fluoro-4-methoxyphenyl)-8-(5-fluoropyridin-3-yl)-4-oxo-2-(pyrrolidin-2-yl)-3,4-dihydroquinazoline-6-carbonitrile] | 1 to 50 nM | 1 to 50 nM
19 | COc1ccc(-c2cc(C#N)cc3c(=O)n(-c4ccc(OC)c(F)c4)c(C4CCCN4)nc23)cc1F (stereo not drawn) [Example 149, 3,8-Bis(3-fluoro-4-methoxyphenyl)-4-oxo-2-(pyrrolidin-2-yl)-3,4-dihydroquinazoline-6-carbonitrile] | 1 to 50 nM | 1 to 50 nM
20 | COc1ccc(-n2c([C@@H]3CCCN3)nc3c(C)cc(C#N)cc3c2=O)cc1 [Example 51, (S)-3-(4-methoxyphenyl)-8-methyl-4-oxo-2-(pyrrolidin-2-yl)-3,4-dihydroquinazoline-6-carbonitrile] | 151 to 500 nM | 501 to 1000 nM
21 | COc1ccc(-n2c([C@H]3CCCN3)nc3ccc([N+](=O)[O-])cc3c2=O)cc1F [Example 24, (R)-3-(3-fluoro-4-methoxyphenyl)-6-nitro-2-(pyrrolidin-2-yl) quinazolin-4 (3H)-one] | 1 to 50 nM | 1 to 50 nM
22 | COc1ccc(-n2c(C3C[C@@H](OC)CN3)nc3c(-c4ccc(C)nc4)cc(C#N)cc3c2=O)cc1F (stereo partly drawn) [Example 120, 3-(3-fluoro-4-methoxyphenyl)-2-((4R)-4-methoxypyrrolidin-2-yl)-8-(6-methylpyridin-3-yl)-4-oxo-3,4-dihydroquinazoline-6-carbonitrile] | 151 to 500 nM | –
23 | COc1ccc(-n2c(C3CCCN3)nc3c(-c4ccc(CO)nc4)cc(C#N)cc3c2=O)cc1F (stereo not drawn) [Example 181, 3-(3-fluoro-4-methoxyphenyl)-8-(6-(hydroxymethyl)pyridin-3-yl)-4-oxo-2-(pyrrolidin-2-yl)-3,4-dihydroquinazoline-6-carbonitrile] | 1 to 50 nM | –
24 | COc1ccc(-n2c([C@@H]3C[C@H](C(F)(F)F)CN3)nc3c(-c4ccc(C)nc4)cc(C#N)cc3c2=O)cc1F (racemic) [Example 190, cis-(±)-3-(3-fluoro-4-methoxyphenyl)-8-(6-methylpyridin-3-yl)-4-oxo-2-((2S,4S)-4-(trifluoromethyl)pyrrolidin-2-yl)-3,4-dihydroquinazoline-6-carbonitrile] | 1 to 50 nM | –
25 | COc1ccc(-n2c(C3CCCN3)nc3c(Oc4ccc(C)nc4)cc(C#N)cc3c2=O)cc1F (stereo not drawn) [Example 191, 3-(3-fluoro-4-methoxyphenyl)-8-((6-methylpyridin-3-yl)oxy)-4-oxo-2-(pyrrolidin-2-yl)-3,4-dihydroquinazoline-6-carbonitrile] | 1 to 50 nM | –
26 | COc1c(F)cc(-n2c(C3CCCN3)nc3c(-c4ccc(C(C)(C)O)nc4)cc(C#N)cc3c2=O)cc1F (stereo not drawn) [Example 182, 3-(3,5-difluoro-4-methoxyphenyl)-8-(6-(2-hydroxypropan-2-yl)pyridin-3-yl)-4-oxo-2-(pyrrolidin-2-yl)-3,4-dihydroquinazoline-6-carbonitrile] | 1 to 50 nM | –
27 | COc1ccc(-n2c([C@H]3CCCN3)nc3c(N4CCC(N5CCOCC5)CC4)cc(C#N)cc3c2=O)cc1F [Example 179, (R)-3-(3-fluoro-4-methoxyphenyl)-8-(4-morpholinopiperidin-1-yl)-4-oxo-2-(pyrrolidin-2-yl)-3,4-dihydroquinazoline-6-carbonitrile] | 1 to 50 nM | –
28 | COc1c(F)cc(-n2c(C3CCCN3)nc3c(-c4ccc(C(C)=O)nc4)cc(C#N)cc3c2=O)cc1F (stereo not drawn) [Example 177, 8-(6-acetylpyridin-3-yl)-3-(3,5-difluoro-4-methoxyphenyl)-4-oxo-2-(pyrrolidin-2-yl)-3,4-dihydroquinazoline-6-carbonitrile] | 1 to 50 nM | –
29 | COc1ccc(-n2c([C@@H]3C[C@@](O)(C(F)(F)F)CN3)nc3c(-c4ccc(C)nc4)cc(C#N)cc3c2=O)cc1F [Example 192, 3-(3-fluoro-4-methoxyphenyl)-2-((2S,4S)-4-hydroxy-4-(trifluoromethyl)pyrrolidin-2-yl)-8-(6-methylpyridin-3-yl)-4-oxo-3,4-dihydroquinazoline-6-carbonitrile] | 1 to 50 nM | –
30 | COc1ccc(-n2c([C@@H]3CC(F)(F)CN3)nc3c(-c4ccc(C)nc4)cc(C#N)cc3c2=O)cc1F [Example 183, (S)-2-(4,4-difluoropyrrolidin-2-yl)-3-(3-fluoro-4-methoxyphenyl)-8-(6-methylpyridin-3-yl)-4-oxo-3,4-dihydroquinazoline-6-carbonitrile] | 151 to 500 nM | –
31 | COc1ccc(-n2c(C34CC(CN3)C4)nc3c(-c4ccc(C)nc4)cc(C#N)cc3c2=O)cc1F [Example 178, 2-(2-azabicyclo[2.1.1]hexan-1-yl)-3-(3-fluoro-4-methoxyphenyl)-8-(6-methylpyridin-3-yl)-4-oxo-3,4-dihydroquinazoline-6-carbonitrile] | 1 to 50 nM | –
